Measured values as given in article PMC7477610 (Travel Medicine and Infectious Disease, 2020).
Several values for one entry are separate records, joined by “and”; a condition that tells them apart may be missing. Equal values may be shown once. Read-outs that look alike come from different tables or passages of the source.

Experiments:
[1] = test system: SARS-CoV-1; details: read-out: EC50 against SARS-CoV-1; cited from earlier work
[2] = human, uptake of 612 mg, extrapolated from 0.07% of dose in rat lung
[3] = test system: SARS-CoV-1; details: mouse; cited from earlier work
[4] = test system: dengue virus type 2; details: cited from earlier work
[5] = Cytotoxicity assay; assay type: cell-based; details: African green monkey, Vero E6 cells
[6] = cited from earlier work
[7] = test system: SARS-CoV-2; details: read-out: EC50 against SARS-CoV-2; Vero E6 cells, MOI of 0.2; cited from earlier work
[8] = can go up; cited from earlier work
[9] = test system: SARS-CoV-2 (clinically isolated strain IHUMI-3); assay type: cell-based; details: for Selectivity index (SI), ratio CC50/EC50: Vero E6 cells
[10] = cited from earlier work; remark: listed apart in the source
[11] = at 6 h; cited from earlier work
[12] = test system: SARS-CoV-2; details: 10 μM, Vero E6 cells infected by SARS-CoV-2; cited from earlier work
[13] = test system: Ebola virus; details: mouse, in vivo; cited from earlier work
[14] = test system: Ebola virus; details: read-out: EC50 against Ebola virus; cited from earlier work
[15] = cited from earlier work; remark: listed apart in the source
[16] = test system: SARS-CoV-2; details: read-out: EC50 against SARS-CoV-2; in vitro; cited from earlier work
[17] = test system: feline coronavirus; details: read-out: EC50 against feline coronavirus; cited from earlier work
[18] = amodiaquine given at 612 mg day
[19] = rats, single oral dose of 2 mg (10 mg/kg)

CCN(CC)Cc1cc(Nc2ccnc3cc(Cl)ccc23)ccc1O [Amodiaquine]
EC50 [1]: 2.5 µM
Amount that would be found in lungs [2]: 428 µg
In vivo activity on SARS-CoV-1 [3]: inactive
EC50 ([4]; read-out: EC50, dengue virus type 2 replication): 1.08 µM
EC90 ([4]; read-out: EC90, dengue virus type 2 replication): 2.69 µM

CCN(CC)CCCC(C)Nc1ccnc2cc(Cl)ccc12 (stereo not shown) [Chloroquine]
CC50 at 48 h [5]: > 100 µM
EC50 [1]: 2.5 µM
Plasma concentration ([6]; chloroquine 100 mg day, prophylaxis of malaria): 0.01–0.4 mg/l and 0.03–1.25 μM
EC50 [7]: 7.1 µM
Concentration in the lung [8]: up to 280 mg/kg
In vivo activity on SARS-CoV-1 [3]: inactive
Selectivity index (SI), ratio CC50/EC50 [9]: >47
Adverse events [10]: 56%

CCNCc1cc(Nc2ccnc3cc(Cl)ccc23)ccc1O [Desethylamodiaquine]
CC50 at 48 h [5]: 86.1 ± 10.5 µM
Plasma concentration of desethylamodiaquine [6, 18]: 753 ng/ml and around 1.9 μM
t1/2 [6, 18]: 8.9 days

C[C@H]1[C@@H](O)O[C@@H]2O[C@@]3(C)CC[C@H]4[C@H](C)CC[C@@H]1[C@@]24OO3 [Dihydroartemisinin]
CC50 at 48 h [5]: 58.9 ± 7.4 µM
Selectivity index (SI), ratio CC50/EC50 [9]: 3

CCN(CCO)CCCC(C)Nc1ccnc2cc(Cl)ccc12 (stereo not shown) [Hydroxychloroquine]
CC50 at 48 h [5]: 20.4 ± 1.4 µM
Cmax ([6]; oral uptake of 400 mg): 1220 nM
EC50 [7]: 17.3 µM
Blood concentration [11]: around 0.3 μM
Lung concentration [11]: 7.8 µM

CCCCN(CCCC)CC(O)c1cc(Cl)cc2c1-c1ccc(Cl)cc1/C2=C/c1ccc(Cl)cc1 (stereo not shown) [Lumefantrine]
CC50 at 48 h [5]: 87.7 ± 11.9 µM
Cmax ([6]; single oral dose 480 mg): 1100 nM
Selectivity index (SI), ratio CC50/EC50 [9]: 4

OC(c1cc(C(F)(F)F)nc2c(C(F)(F)F)cccc12)C1CCCCN1 (stereo not shown) [Mefloquine]
CC50 at 48 h [5]: 14.4 ± 2.1 µM
Inhibition of cytopathic effect [12]: inhibited completely

Clc1ccc2c(N3CCN(CCCN4CCN(c5ccnc6cc(Cl)ccc56)CC4)CC3)ccnc2c1 [Piperaquine]
CC50 at 48 h [5]: 55 ± 4.8 µM
Selectivity index (SI), ratio CC50/EC50 [9]: 2

COc1ccc2nc3cc(Cl)ccc3c(Nc3cc(CN4CCCC4)c(O)c(CN4CCCC4)c3)c2n1 [Pyronaridine]
CC50 at 48 h [5]: 15.9 ± 1.6 µM
Protection against Ebola virus infection [13]: protected mice
t1/2 ([6]; 720 mg day, human): 33.5 days
Plasma concentration ([6]; 720 mg day, human, listed as Pyronaridine tetraphosphate): 271 ng/ml and around 0.3 μM
EC50 [14]: 1.14 µM
Blood Cmax [15, 19]: 223 ng/mL
Lung Cmax [15, 19]: 36.4 µg/g
Lung Cmax relative to blood Cmax (more concentrated) [15, 19]: 165
Selectivity index (SI), ratio CC50/EC50 [9]: 22
Adverse events [10]: around 38%

C=C[C@H]1C[N@@]2CC[C@H]1C[C@H]2[C@H](O)c1ccnc2ccc(OC)cc12 [Quinine]
CC50 at 48 h [5]: > 100 µM
Blood Cmax ([6]; 600 mg single oral dose of quinine sulphate): around 3.5 mg/l
Cmax ([6]; read-out: Blood Cmax, 600 mg single oral dose of quinine sulphate): ~8500 nM
Concentration lung/blood ratio ([15]; rat, intravenous dose of 10 mg/kg): 246

C[C@H]1c2cccc(O)c2C(=O)C2=C(O)[C@]3(O)C(=O)C(C(N)=O)=C(O)[C@@H](N(C)C)[C@@H]3[C@@H](O)[C@@H]21 [doxycycline]
EC50 [16]: 5.6 µM

Ferroquine
EC50 [1]: 1.4 µM
Mean Cmax (maximum blood concentration) ([6]; oral uptake of 800 mg): 155 ng/mL
t1/2 (elimination half-life) ([6]; oral uptake of 800 mg): 10.9 days
Cmax ([6]; read-out: Mean Cmax (maximum blood concentration), oral uptake of 800 mg): ~600 nM
EC90 ([9]; read-out: 90% effective concentration (EC90) against SARS-CoV-2): 2.4 ± 0.9 µM
EC50 ([9]; read-out: Median effective concentration (EC50) against SARS-CoV-2): 1.5 ± 0.3 µM
EC50 [17]: 2.9 µM
